Experimental data published in US20060189512A1, “Compositions containing botanical extracts rich in phlorizin and methods for using such compositions in blood glucose modification and to affect aging” (priority 2005, published 2006).

Target: T1, SIRT1 (histone deacetylase) (Homo sapiens, UniProt Q96EB6)
T1 construct: purchased BIOMOL Research Laboratories, Inc., Plymouth Meeting, Pa
T1 sequence (Q96EB6 1-747): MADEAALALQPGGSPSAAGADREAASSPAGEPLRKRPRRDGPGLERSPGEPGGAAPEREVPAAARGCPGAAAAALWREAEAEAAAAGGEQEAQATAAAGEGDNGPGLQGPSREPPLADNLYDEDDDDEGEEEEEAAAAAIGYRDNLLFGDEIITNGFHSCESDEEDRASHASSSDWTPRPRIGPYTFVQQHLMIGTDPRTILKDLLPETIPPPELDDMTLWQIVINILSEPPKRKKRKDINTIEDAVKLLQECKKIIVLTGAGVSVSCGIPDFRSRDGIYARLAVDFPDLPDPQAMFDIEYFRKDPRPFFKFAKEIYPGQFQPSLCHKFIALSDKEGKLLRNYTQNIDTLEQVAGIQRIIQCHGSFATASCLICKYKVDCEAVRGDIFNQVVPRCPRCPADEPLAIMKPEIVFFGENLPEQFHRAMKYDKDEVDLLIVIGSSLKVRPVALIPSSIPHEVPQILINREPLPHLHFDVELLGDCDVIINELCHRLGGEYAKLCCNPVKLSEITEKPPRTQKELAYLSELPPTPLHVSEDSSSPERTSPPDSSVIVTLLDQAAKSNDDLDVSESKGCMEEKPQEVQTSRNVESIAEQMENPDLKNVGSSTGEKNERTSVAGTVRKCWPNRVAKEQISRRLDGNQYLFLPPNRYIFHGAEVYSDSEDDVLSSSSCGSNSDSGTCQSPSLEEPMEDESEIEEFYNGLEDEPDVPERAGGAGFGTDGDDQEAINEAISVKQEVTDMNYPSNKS
Assay: Cell-based fluorescence deacetylase assay, SIRT1 Fluorimetric Drug Discovery Kit (BIOMOL)
Text: A cell-based fluorescence deacetylase assay, SIRT1 Fluorimetric Drug Discovery Kit, obtained from BIOMOL Research Laboratories, Inc., Plymouth Meeting, Pa. was used to measure the effects of various polyphenols in apple extract on histone deacetylase activity.

| Molecule | Histone deacetylase activity (concentration 500 micromolar) | Histone deacetylase activity (concentration 100 micromolar) [× baseline] |
| --- | --- | --- |
| O=C(CCc1ccc(O)cc1)c1c(O)cc(O)cc1O [Phloretin] | 1.94 × baseline |  |
| O=C(CCc1ccc(O)cc1)c1c(O)cc(O)cc1O[C@@H]1O[C@H](CO)[C@@H](O)[C@H](O)[C@H]1O [Phlorizin] |  | 1.36 |
| O=c1c(O)c(-c2ccc(O)c(O)c2)oc2cc(O)cc(O)c12 [Quercetin] | 4.59 × baseline |  |
| Catechins | 1.26-1.53 × baseline |  |
